Reference: patent publication US12064502B2, “Peptide exhibiting wrinkle-improving activity and uses thereof” (CAREGEN CO., LTD., priority 2017, dated 2024)
Several values for one entry are separate records, joined by “and”; a condition that tells them apart may be missing. Equal values may be shown once.

Legend:
Mouse fibroblast NIH3T3 = test: Promotion of proliferation of fibroblasts (MTT assay); assay type: cell-based; details: NIH3T3, 3 days; for Fibroblast proliferation (result in words): 10 μM or 50 μM; for Fibroblast proliferation (%): MTT, control = 100
Description: Mouse fibroblast NIH3T3 was seeded in a 96-well plate at a density of 5×10^3 cells/well, and then cultured overnight. Subsequently, the media were changed to 0.05% serum-containing media. Then, treatment with the positive control, i.e., 100 nM bFGF, and 10 μM or 50 μM of the peptide consisting of an amino acid sequence of SEQ ID NO: 1, 2, 3, or 4 were performed and cultured for 3 days. Then, 4 mg/mL MTT solution treatment was performed, and the reaction was carried out for 4 hours. Then, the resulting formazan was dissolved by treatment with dimethyl sulfoxide (hereinafter referred to as “DMSO”), and the absorbance at 560 nm was measured using a microplate reader.

Human keratinocyte HaCaT = test: Promotion of proliferation of keratinocytes (MTT assay); assay type: cell-based; details: 3 days, control = 100
Description: Human keratinocyte HaCaT was seeded in a 6-well plate at a density of 3×10^5 cells/well, and then cultured overnight. Subsequently, the media were changed to 0.05% serum-containing media. Then, treatment with the positive control, i.e., 10 nM EGF, and 10 μM or 50 μM of the peptide consisting of an amino acid sequence of SEQ ID NO: 1, 2, 3, or 4 were performed and cultured for 3 days. Then, 4 mg/mL MTT solution treatment was performed, and the reaction was carried out for 4 hours. Then, the resulting formazan was dissolved by treatment with dimethyl sulfoxide (hereinafter referred to as “DMSO”), and the absorbance at 560 nm was measured using a microplate reader.

[1] = system: MAPK (ERK, p38, and JNK) and AKT; test: Phosphorylation level of MAPK and AKT in fibroblasts (western blotting); assay type: cell-based, mouse; details: 10 μM or 50 μM, NIH3T3, 30 minutes
Description: Mouse fibroblast NIH3T3 was seeded in a 6-well plate at a density of 5×10^3 cells/well, and then cultured overnight. Subsequently, the media were changed to 0.05% FBS-containing media. Then, treatment with the positive control, i.e., 100 nM bFGF, and 10 μM or 50 μM of the peptide consisting of an amino acid sequence of SEQ ID NO: 1, 2, 3, or 4 were performed and cultured for 30 minutes. Then, the cells were collected to prepare cell lysate. Then, western blotting was performed using P-MAPK (p-Erk, p-JNK, p-p38) and p-Akt or actin antibody (Santacruz Biotechnology, USA).

[2] = system: collagen1a, fibronectin, elastin mRNA; test: RT-PCR of collagen1a, fibronectin and elastin in fibroblasts; assay type: cell-based, mouse; details: 10 μM or 50 μM, NIH3T3, 24 hours
Description: Mouse fibroblast NIH3T3 was seeded in a 6-well plate at a density of 5×10^3 cells/well, and then cultured overnight. Subsequently, the media were changed to 0.05% FBS-containing media, followed by culturing for 4 hours. Then, treatment with the positive control, i.e., 100 nM IGF-1, and 10 μM or 50 μM of the peptide consisting of an amino acid sequence of SEQ ID NO: 1, 2, 3, or 4 were performed and cultured for 24 hours. Then, the cells were cultured and collected to isolate RNA. cDNA was synthesized using a cDNA synthesis kit (Intron, Korea) after quantification of RNA, and PCR was carried out using primers of each of PCR premix (Intron, Korea) and collagen1a, fibronectin, elastin, GAPDH in Table 4. Then, the cells were run on 5% agarose gel, and degrees of mRNA expression of the growth factors were compared in each peptide treatment condition.

Procollagen1a = Procollagen1a ELISA; assay type: cell-based, mouse; details: for Pro-collagen1a protein expression (result in words): NIH3T3, 72 hours, ELISA; for Procollagen1a expression (%): NIH3T3 medium, 72 hours, control = 100
Description: Mouse fibroblast NIH3T3 was seeded in a 6-well plate at a density of 5×10^3 cells/well, and then cultured overnight. Subsequently, the media were changed to 0.05% FBS-containing media, followed by culturing for 4 hours. Then, treatment with the positive control, i.e., 100 nM IGF-1, and the peptide consisting of an amino acid sequence of SEQ ID NO: 1, 2, 3, or 4 were performed and cultured for 72 hours. Then, the media were collected. The amount in the medium was measured using Procollagen1a ELISA kit (Usbiological Lifescience, USA).

HA = HA ELISA; assay type: cell-based, human; details: 72 hours; for HA expression: HaCaT medium, control 251
Description: Human keratinocyte HaCaT was seeded in a 6-well plate at a density of 3×10^5 cells/well, and then cultured overnight. The media were changed to 0.05% FBS-containing media, followed by culturing for 4 hours. Then, treatment with the positive control, i.e., 100 nM IGF-1, and the peptide consisting of an amino acid sequence of SEQ ID NO: 2 were performed and cultured for 72 hours. Then, the media were collected. An HA ELISA kit (Echelon, USA) was used to measure an amount thereof.

ERK and p38 = test: Phosphorylation level of MAPK and AKT in keratinocytes (western blotting); assay type: cell-based, human; details: 10 μM or 50 μM, HaCaT, 30 minutes
Description: Human keratinocyte HaCaT was seeded in a 6-well plate at a density of 3×10^5 cells/well, and then cultured overnight. Subsequently, the media were changed to 0.05% FBS-containing media. Then, treatment with the positive control, i.e., 10 nM EGF, and 10 μM or 50 μM of the peptide consisting of an amino acid sequence of SEQ ID NO: 1 or 2 were performed and cultured for 30 minutes. Then, the cells were collected to prepare cell lysate. Then, western blotting was performed using P-MAPK (p-Erk, p-JNK, p-p38) and p-Akt antibody (Santacruz Biotechnology, USA).

AQP3 = test: RT-PCR of AQP3 (Aquaporin3) and SIRT1 in keratinocytes; assay type: cell-based, human; details: 10 μM or 50 μM, HaCaT, 24 hours
Description: Human keratinocyte HaCaT was seeded in a 6-well plate at a density of 3×10^5 cells/well, and then cultured overnight. Subsequently, the media were changed to 0.05% FBS-containing media, followed by culturing for 4 hours. Then, treatment with the positive control, i.e., 100 nM EGF, and 10 μM or 50 μM of the peptide consisting of an amino acid sequence of SEQ ID NO: 1 or 2 were performed and cultured for 24 hours. Then, the cells were cultured and collected to isolate RNA. cDNA was synthesized using a cDNA synthesis kit (Intron, Korea) after quantification of RNA, and PCR was carried out using primers of each of PCR premix (Intron, Korea) and AQP3, SIRT1, and GAPDH in Table 5. Then, the cells were run on 5% agarose gel, and degrees of mRNA expression of the growth factors were compared in each peptide treatment condition.

[3] = system: collagen 1a, fibronectin, and elastin; test: Expression amount of collagen1a, fibronectin and elastin protein (antibody staining, fluorescence microscope); assay type: cell-based, mouse; details: NIH3T3, 24 hours
Description: Mouse fibroblast NIH3T3 was seeded in a 6-well plate at a density of 5×10^3 cells/well, and then cultured overnight. Subsequently, the media were changed to 0.05% serum-free media. Then, treatment with the positive control, i.e., 100 nM EGF, and the peptide consisting of an amino acid sequence of SEQ ID NO: 1 or 2 were performed and cultured for 24 hours. Then, the cells were fixed for 30 minutes using 4% paraformaldehyde. Then, after washing 3 times, the cells were reacted with 0.5% Triton X-100 for 15 minutes and washed again 3 times. Then, 3% BSA was blocked for 1 hour and the primary antibody (1:100) for collagen 1a, fibronectin, and elastin was reacted overnight at 4° C. Then, the secondary antibody (1:500) was reacted at room temperature for 2 hours, stained with DAPI staining, and observation was made with a fluorescence microscope.

Substance | Fibroblast proliferation (result in words) (Mouse fibroblast NIH3T3) | Fibroblast proliferation (%) (Mouse fibroblast NIH3T3; peptide 10 μM) | Fibroblast proliferation (%) (Mouse fibroblast NIH3T3; peptide 50 μM) | Keratinocyte proliferation (%) (Human keratinocyte HaCaT; peptide 10 μM) | Keratinocyte proliferation (%) (Human keratinocyte HaCaT; peptide 50 μM) | Phosphorylation of MAPK and AKT in fibroblasts (result in words) [1] | mRNA expression of collagen, fibronectin and elastin (result in words) [2] | Pro-collagen1a protein expression (result in words) (Procollagen1a) | Procollagen1a expression (%) (Procollagen1a; peptide 10 μM) | Procollagen1a expression (%) (Procollagen1a; peptide 50 μM) | Fibroblast proliferation (%) (Mouse fibroblast NIH3T3; positive control 100 nM) | Procollagen1a expression (%) (Procollagen1a; positive control 100 nM) | HA expression (HA; positive control 100 nM) | Keratinocyte proliferation (%) (Human keratinocyte HaCaT; positive control 10 nM) | Phosphorylation of MAPK in keratinocytes (result in words) (ERK and p38) | AQP3 expression (result in words) (AQP3) | Protein expression of collagen, fibronectin and elastin (result in words) [3] | HA expression (result in words) (HA; HaCaT, ELISA) | HA expression (HA; peptide 10 μM) | HA expression (HA; peptide 50 μM)
EDEFKPPAAGR [SEQ ID NO: 4] | promote fibroblast proliferation | 114% | 193% | 113% | 142% | activation of MAPK (ERK, p38, and JNK) and AKT | increasing expression of mRNA of collagen, fibronectin, and elastin | expression of pro-collagen1a protein was found to increase | 122% | 141% | – | – | – | – | – | – | – | – | – | –
bFGF: positive control, 100 nM bFGF, in the fibroblast tests [reference compound] | – | – | – | – | – | – | – | – | – | – | 386% and 279% and 400% | – | – | – | – | – | – | – | – | –
GPVH [SEQ ID NO: 3] | promote fibroblast proliferation | 194% | 261% | 183% | 197% | activation of MAPK (ERK, p38, and JNK) and AKT | increasing expression of mRNA of collagen, fibronectin, and elastin | expression of pro-collagen1a protein was found to increase | 138% | 143% | – | – | – | – | – | – | – | – | – | –
IGF-1: positive control, 100 nM IGF-1, in the ELISA and RT-PCR tests [reference compound] | – | – | – | – | – | – | – | – | – | – | – | 113% and 140% | 280 ng/mL | – | – | – | – | – | – | –
EGF: positive control, 10 nM EGF, in the keratinocyte tests [reference compound] | – | – | – | – | – | – | – | – | – | – | – | – | – | 187% and 142% and 152% | – | – | – | – | – | –
KWGGGRY [SEQ ID NO: 1] | promote fibroblast proliferation | 170% | 194% | 120% | 136% | activation of MAPK (ERK, p38, and JNK) and AKT | increasing expression of mRNA of collagen, fibronectin, and elastin | expression of pro-collagen1a protein was found to increase | 98% | 157% | – | – | – | – | activation of ERK and p38 | increasing AQP3 expression | increasing expression of proteins of collagen, fibronectin, and elastin | – | – | –
ILGRWCG [SEQ ID NO: 2] | promote fibroblast proliferation | 188% | 253% | 111% | 119% | activation of MAPK (ERK, p38, and JNK) and AKT | increasing expression of mRNA of collagen, fibronectin, and elastin | expression of pro-collagen1a protein was found to increase | 145% | 146% | – | – | – | – | activation of ERK and p38 | increasing AQP3 expression | increasing expression of proteins of collagen, fibronectin, and elastin | increasing HA expression | 286 ng/mL | 292 ng/mL
